What was measured:
L1210 = test: Inhibitory activity for the growth inhibition of L1210 cell line.; assay type: functional, cell-based; settings: Mus musculus
[1] = Relative influx was determined by taking the ratio vs MTX in L1210 cell line; assay type: functional
Dihydrofolate reductase = target: T1, Dihydrofolate reductase (Mus musculus, UniProt P00375); test: Inhibitory activity of Dihydrofolate reductase derived from L1210 cell line.; assay type: cell-based
T1 sequence (P00375 whole entry): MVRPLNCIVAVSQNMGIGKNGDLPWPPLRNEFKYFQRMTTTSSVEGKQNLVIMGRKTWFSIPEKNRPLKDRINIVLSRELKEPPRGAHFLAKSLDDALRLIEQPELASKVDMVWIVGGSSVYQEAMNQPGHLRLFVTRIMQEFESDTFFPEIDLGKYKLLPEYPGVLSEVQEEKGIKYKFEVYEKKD

[2] = Inhibitory activity for L1210 Glycinamide ribotide formyltransferase; parameters: species or system Mus musculus
[3] = Inhibitory activity for Lactobacillus casei Glycinamide ribotide formyltransferase; parameters: species or system Lacticaseibacillus casei

Row | IC50 (L1210) [nM] | Ki (Dihydrofolate reductase) [nM] | IC50 [2] [nM] | IC50 [3] [nM] | SMILES | Relative influx [1]
1 | 12.1 | 0.013 |  |  | CCC(Cc1cnc2nc(N)nc(N)c2c1)c1ccc(C(=O)NC(CCC(=O)O)C(=O)O)cc1 (stereo unspecified) | 1.32
2 | 34.6 | > 1000 | 660 | 80 | CCC(CC1CNc2nc(N)nc(O)c2C1)c1ccc(C(=O)NC(CCC(=O)O)C(=O)O)cc1 (stereo unspecified) | 1.36

Second part, the compound before the results:

Row | SMILES | IC50 (L1210) [nM] | Ki (Dihydrofolate reductase) [nM] | IC50 [2] [nM] | IC50 [3] [nM] | Relative influx [1]
3 | CC(Cc1cnc2nc(N)nc(N)c2c1)c1ccc(C(=O)NC(CCC(=O)O)C(=O)O)cc1 (stereo unspecified) | 23.9 | 0.007 |  |  | 1.43
4 | CC(CC1CNc2nc(N)nc(O)c2C1)c1ccc(C(=O)NC(CCC(=O)O)C(=O)O)cc1 (stereo unspecified) | 50.3 | > 1000 | 1500 | 17 | 1.72
5 | Nc1nc(O)c2c(n1)CCC(CNc1ccc(C(=O)NC(CCC(=O)O)C(=O)O)cc1)C2 (stereo unspecified) | 57.2 | > 1000 | 500 | 10 | 1.54

— ChEMBL document CHEMBL1124825 (J Med Chem, 1990)
